Results: US11066389B2, “Process for the manufacturing of medicaments” (Genentech, Inc., priority 2014, dated 2021)

Key:
Type in all cases: physicochemical
[1] = pKa determination of the free base (salt screen)
Experimental: A salt screen was conducted to determine if a suitable salt form could be discovered. The pKa of the free base was determined to be less than 2, which limited the range of possible salt coformers. In addition, salts derived from (S)-1-(1-(4-chloro-3-fluorophenyl)-2-hydroxyethyl)-4-(2-((1-methyl-1H-pyrazol-5-yl)amino)pyrimidin-4-yl)pyridin-2(1H)-one free base would have a pHmax less than 2 and would be expected to disproportionate in water. Thus, it was not clear that a crystalline salt could be prepared or that any salt would have acceptable exposure in vivo (an aqueous environment). […] Eventually crystalline salts were obtained from 1,5-naphthalenedisulfonic acid, p-toluenesulfonic acid and benzenesulfonic acid.

[2] = Hygroscopicity, automated vapor sorption (DVS); details: salt form; lower than the tosylate and 1,5-naphthalenedisulfonic acid salt forms; vapor sorption at 25° C., 5 to 95% RH
Experimental: Automated vapor sorption data were collected on a TA Instruments Q5000SA vapor sorption analyzer. NaCl and PVP were used as calibration standards. Samples were not dried prior to analysis. Adsorption and desorption data were collected at 25° C. over a range from 5 to 95% RH at 10% RH increments under a nitrogen purge. Samples were held at the corresponding RH for 1 hour prior to moving to the next RH range. Data were not corrected for the initial moisture content of the samples.

[3] = Solid-form stability against disproportionation in the presence of water; details: compared to the tosylate and naphthalenesulfonic acid salt forms

pKa [1]	pKa of the free base [1]	hygroscopicity [2]	stability [3]	SMILES
< 2	less than 1.8	–	–	Cn1nccc1Nc1nccc(-c2ccn([C@H](CO)c3ccc(Cl)c(F)c3)c(=O)c2)n1 [VIII, (S)-1-(1-(4-chloro-3-fluorophenyl)-2-hydroxyethyl)-4-(2-(1-methyl-1H-pyrazol-5-ylamino)pyrimidin-4-yl)pyridin-2(1H)-one]
–	–	non-hygroscopicity	enhanced stability	Cn1nccc1Nc1nccc(-c2ccn([C@H](CO)c3ccc(Cl)c(F)c3)c(=O)c2)n1.O=S(=O)(O)c1ccccc1 [besylate salt, (S)-1-(1-(4-Chloro-3-fluorophenyl)-2-hydroxyethyl)-4-(2-((1-methyl-1H-pyrazol-5-yl)amino)pyrimidin-4-yl)pyridin-2(1H)-one, Benzenesulfonate Salt]
